Measured values published in ChEMBL document CHEMBL5678804 (Cancer Cell, 2011).
Active and inactive are the calls of the source. The calls are words filed in the database; no cut-off is given here.

Key:
LIM domain kinase 1 = LIM domain kinase 1 (Homo sapiens, UniProt P53667); experiment: Inhibition of human wild type LIMK1 using CFL2 as substrate preincubated for 2 hrs followed by ATP addition and measured every 2 mins for […] by spectrophotometric analysis
[1] = biological target: Platelet-derived growth factor receptor alpha (Homo sapiens, UniProt P16234); experiment: Inhibition of human wild type PDGFR alpha using Poly(Ala,Glu,Lys,Tyr)6:2:5:1 as substrate preincubated for 2 hrs followed by ATP addition and measured every 2 mins for […] by spectrophotometric analysis
[2] = biological target: Tyrosine-protein kinase Fes/Fps (Homo sapiens, UniProt P07332); experiment: Inhibition of human wild type FES using PolyEY as substrate preincubated for 2 hrs followed by ATP addition and measured every 2 mins for […] by spectrophotometric analysis
[3] = biological target: Hepatocyte growth factor receptor (Homo sapiens, UniProt P08581); experiment: Inhibition of human wild type MET using Poly(Ala,Glu,Lys,Tyr)6:2:5:1 as substrate preincubated for 2 hrs followed by ATP addition and measured every 2 mins for […] by spectrophotometric analysis
[4] = biological target: MAP kinase-interacting serine/threonine-protein kinase 2 (Homo sapiens, UniProt Q9HBH9); experiment: Inhibition of human wild type MNK2 using RB-S6P as substrate preincubated for 2 hrs followed by ATP addition and measured every 2 mins for […] by spectrophotometric analysis
[5] = biological target: STE20-like serine/threonine-protein kinase (Homo sapiens, UniProt Q9H2G2); experiment: Inhibition of human wild type SLK using RB-S6P as substrate preincubated for 2 hrs followed by ATP addition and measured every 2 mins for […] by spectrophotometric analysis
[6] = biological target: Dual specificity protein kinase TTK (Homo sapiens, UniProt P33981); experiment: Inhibition of human wild type TTK using RBER-CHKtide as substrate preincubated for 2 hrs followed by ATP addition and measured every 2 mins for […] by spectrophotometric analysis
Aurora kinase B = Aurora kinase B (Homo sapiens, UniProt Q96GD4); experiment: Inhibition of human wild type AuroraB using bio-4xCHKT as substrate preincubated for 2 hrs followed by ATP addition and measured every 2 mins for […] by spectrophotometric analysis
[7] = biological target: Serine/threonine-protein kinase BRSK1 (Homo sapiens, UniProt Q8TDC3); experiment: Inhibition of human wild type BRSK1 using RBER-CHKtide as substrate preincubated for 2 hrs followed by ATP addition and measured every 2 mins for […] by spectrophotometric analysis
[8] = biological target: Calcium/calmodulin-dependent protein kinase type 1 (Homo sapiens, UniProt Q14012); experiment: Inhibition of human CAMK1alpha preincubated for 2 hrs followed by ATP addition and measured every 2 mins for […] by spectrophotometric analysis
[9] = biological target: Receptor tyrosine-protein kinase erbB-2 (Homo sapiens, UniProt P04626); experiment: Inhibition of human wild type HER2 using PolyEY as substrate preincubated for 2 hrs followed by ATP addition and measured every 2 mins for […] by spectrophotometric analysis
[10] = biological target: Receptor tyrosine-protein kinase erbB-4 (Homo sapiens, UniProt Q15303); experiment: Inhibition of human wild type HER4 using PolyEY as substrate preincubated for 2 hrs followed by ATP addition and measured every 2 mins for […] by spectrophotometric analysis
[11] = biological target: Insulin-like growth factor 1 receptor (Homo sapiens, UniProt P08069); experiment: Inhibition of human wild type IGF1R using PolyEY as substrate preincubated for 2 hrs followed by ATP addition and measured every 2 mins for […] by spectrophotometric analysis
[12] = biological target: MAP kinase-interacting serine/threonine-protein kinase 1 (Homo sapiens, UniProt Q9BUB5); experiment: Inhibition of human wild type MNK1 using RB-S6P as substrate preincubated for 2 hrs followed by ATP addition and measured every 2 mins for […] by spectrophotometric analysis
[13] = biological target: Serine/threonine-protein kinase Nek1 (Homo sapiens, UniProt Q96PY6); experiment: Inhibition of human wild type NEK1 using RBER-CHKtide as substrate preincubated for 2 hrs followed by ATP addition and measured every 2 mins for […] by spectrophotometric analysis
[14] = biological target: Mitogen-activated protein kinase kinase kinase 14 (Homo sapiens, UniProt Q99558); experiment: Inhibition of human wild type NIK using RBER-CHKtide as substrate preincubated for 2 hrs followed by ATP addition and measured every 2 mins for […] by spectrophotometric analysis
[15] = biological target: Serine/threonine-protein kinase NLK (Homo sapiens, UniProt Q9UBE8); experiment: Inhibition of human wild type NLK using RBER-GSK3([…]-[…]) as substrate preincubated for 2 hrs followed by ATP addition and measured every 2 mins for […] by spectrophotometric analysis
[16] = biological target: Mitogen-activated protein kinase 12 (Homo sapiens, UniProt P53778); experiment: Inhibition of human wild type p38 gamma using RBER-IRStide as substrate preincubated for 2 hrs followed by ATP addition and measured every 2 mins for […] by spectrophotometric analysis
[17] = biological target: Mitogen-activated protein kinase 13 (Homo sapiens, UniProt O15264); experiment: Inhibition of human wild type p38 delta using RBER-CHKtide as substrate preincubated for 2 hrs followed by ATP addition and measured every 2 mins for […] by spectrophotometric analysis
[18] = biological target: Serine/threonine-protein kinase pim-2 (Homo sapiens, UniProt Q9P1W9); experiment: Inhibition of human wild type PIM2 using RBER-GSK3(14to 27) as substrate preincubated for 2 hrs followed by ATP addition and measured every 2 mins for […] by spectrophotometric analysis
[19] = Inhibition of human wild type PKA using bio-4xCHKT as substrate preincubated for 2 hrs followed by ATP addition and measured every 2 mins for […] by spectrophotometric analysis
[20] = biological target: Serine/threonine-protein kinase PLK1 (Homo sapiens, UniProt P53350); experiment: Inhibition of human wild type PLK1 using RBER-CHKtide as substrate preincubated for 2 hrs followed by ATP addition and measured every 2 mins for […] by spectrophotometric analysis
[21] = biological target: Serine/threonine-protein kinase 25 (Homo sapiens, UniProt O00506); experiment: Inhibition of human wild type STK25 using Casein as substrate preincubated for 2 hrs followed by ATP addition and measured every 2 mins for […] by spectrophotometric analysis
[22] = biological target: Non-receptor tyrosine-protein kinase TYK2 (Homo sapiens, UniProt P29597); experiment: Inhibition of human wild type TYK2 using Poly(Ala,Glu,Lys,Tyr)6:2:5:1 as substrate preincubated for 2 hrs followed by ATP addition and measured every 2 mins for […] by spectrophotometric analysis
BaF3 = experiment: Antitumor activity against mouse BaF3 cells harbouring BCR-ABL1 T315I mutant xenografted in Balb/c mouse model assessed as reduction in leukemia cell burden in spleen at 100 mg/kg, po administered twice daily; type: functional, organism-based
[23] = biological target: Bcr/Abl fusion protein (Homo sapiens) (UniProt P00519+P11274); experiment: Inhibition of BCR-ABL1 phosphorylation in Ph+ B-ALL patient with […] mutation derived human Leukemia cell at 50 to 1000 nM by immunoblot analysis; type: cell-based; conditions: dose 50-1000 nM
[24] = biological target: T1, Tyrosine-protein kinase ABL1 (Homo sapiens, UniProt P00519); conditions: Sf9, time 2.0 hrs
[25] = biological target: T1, Tyrosine-protein kinase ABL1; conditions: Sf9, time 2.0 hrs; remark: listed apart in the source

T1 sequence (P00519 whole entry): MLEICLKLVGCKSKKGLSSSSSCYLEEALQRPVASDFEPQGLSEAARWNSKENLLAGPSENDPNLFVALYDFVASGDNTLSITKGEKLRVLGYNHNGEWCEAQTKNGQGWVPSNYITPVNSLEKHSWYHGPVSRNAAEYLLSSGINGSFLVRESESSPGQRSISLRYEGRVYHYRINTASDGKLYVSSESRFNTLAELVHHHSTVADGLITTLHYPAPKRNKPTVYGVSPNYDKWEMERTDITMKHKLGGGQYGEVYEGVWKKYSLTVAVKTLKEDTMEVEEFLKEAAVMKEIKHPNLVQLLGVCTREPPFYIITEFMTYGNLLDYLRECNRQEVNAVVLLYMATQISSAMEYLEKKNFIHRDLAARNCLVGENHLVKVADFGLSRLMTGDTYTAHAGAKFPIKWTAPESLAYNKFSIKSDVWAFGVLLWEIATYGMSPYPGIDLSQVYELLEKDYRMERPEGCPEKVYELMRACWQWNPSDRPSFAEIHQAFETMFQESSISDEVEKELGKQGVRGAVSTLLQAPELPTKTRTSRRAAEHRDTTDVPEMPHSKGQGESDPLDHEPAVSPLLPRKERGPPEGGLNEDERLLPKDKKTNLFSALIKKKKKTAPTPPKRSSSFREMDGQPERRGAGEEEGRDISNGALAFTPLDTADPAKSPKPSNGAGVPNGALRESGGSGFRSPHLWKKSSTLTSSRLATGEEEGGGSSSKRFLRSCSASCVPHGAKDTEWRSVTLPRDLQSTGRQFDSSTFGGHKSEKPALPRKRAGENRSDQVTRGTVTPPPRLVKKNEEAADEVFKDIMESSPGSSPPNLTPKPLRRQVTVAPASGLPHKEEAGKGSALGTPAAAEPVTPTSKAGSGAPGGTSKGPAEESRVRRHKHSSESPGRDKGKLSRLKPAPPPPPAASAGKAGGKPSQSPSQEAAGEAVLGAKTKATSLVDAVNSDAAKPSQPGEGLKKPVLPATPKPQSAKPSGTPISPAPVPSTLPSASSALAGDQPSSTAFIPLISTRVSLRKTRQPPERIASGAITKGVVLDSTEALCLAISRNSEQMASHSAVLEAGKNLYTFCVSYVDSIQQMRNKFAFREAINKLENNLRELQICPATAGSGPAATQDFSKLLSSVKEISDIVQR
Sequence of Bcr/Abl fusion protein (Homo sapiens) (P00519 whole entry, looked up, the tested form may be a part): as the sequence (P00519 whole entry) above
Sequence of Bcr/Abl fusion protein (Homo sapiens) (P11274 whole entry, looked up, the tested form may be a part): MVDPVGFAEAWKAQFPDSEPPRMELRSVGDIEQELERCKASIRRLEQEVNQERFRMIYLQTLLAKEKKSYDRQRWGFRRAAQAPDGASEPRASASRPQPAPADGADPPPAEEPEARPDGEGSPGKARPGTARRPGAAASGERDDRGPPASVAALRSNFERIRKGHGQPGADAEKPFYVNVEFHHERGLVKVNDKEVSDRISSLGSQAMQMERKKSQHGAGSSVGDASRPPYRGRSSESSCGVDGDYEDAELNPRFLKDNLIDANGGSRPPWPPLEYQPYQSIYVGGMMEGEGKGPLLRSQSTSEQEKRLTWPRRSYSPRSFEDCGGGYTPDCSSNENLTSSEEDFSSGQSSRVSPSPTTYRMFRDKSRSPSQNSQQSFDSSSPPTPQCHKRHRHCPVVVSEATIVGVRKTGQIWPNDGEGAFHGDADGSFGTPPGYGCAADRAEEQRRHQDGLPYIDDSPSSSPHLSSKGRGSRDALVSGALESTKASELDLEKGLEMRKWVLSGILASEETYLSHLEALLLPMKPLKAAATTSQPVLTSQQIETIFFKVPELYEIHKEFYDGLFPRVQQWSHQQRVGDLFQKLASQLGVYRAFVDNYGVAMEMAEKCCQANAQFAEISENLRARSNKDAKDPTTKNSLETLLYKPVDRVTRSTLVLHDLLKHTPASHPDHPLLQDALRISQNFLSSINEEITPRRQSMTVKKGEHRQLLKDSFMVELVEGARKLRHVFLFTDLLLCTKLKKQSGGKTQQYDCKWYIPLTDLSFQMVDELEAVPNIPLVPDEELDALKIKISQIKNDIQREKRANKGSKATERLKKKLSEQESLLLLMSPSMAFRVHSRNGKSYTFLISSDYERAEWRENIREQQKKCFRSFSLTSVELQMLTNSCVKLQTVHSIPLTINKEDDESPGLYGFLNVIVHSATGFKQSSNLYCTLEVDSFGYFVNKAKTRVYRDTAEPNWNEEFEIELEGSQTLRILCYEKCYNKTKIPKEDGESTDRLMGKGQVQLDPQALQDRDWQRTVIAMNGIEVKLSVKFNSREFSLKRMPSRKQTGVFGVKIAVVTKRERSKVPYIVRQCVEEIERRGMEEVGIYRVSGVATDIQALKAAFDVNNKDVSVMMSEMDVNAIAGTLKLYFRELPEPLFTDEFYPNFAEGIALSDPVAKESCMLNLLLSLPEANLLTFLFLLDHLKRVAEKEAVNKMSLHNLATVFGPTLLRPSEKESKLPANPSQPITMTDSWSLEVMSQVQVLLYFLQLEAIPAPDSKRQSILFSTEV
Sequence of Aurora kinase B (Q96GD4 whole entry): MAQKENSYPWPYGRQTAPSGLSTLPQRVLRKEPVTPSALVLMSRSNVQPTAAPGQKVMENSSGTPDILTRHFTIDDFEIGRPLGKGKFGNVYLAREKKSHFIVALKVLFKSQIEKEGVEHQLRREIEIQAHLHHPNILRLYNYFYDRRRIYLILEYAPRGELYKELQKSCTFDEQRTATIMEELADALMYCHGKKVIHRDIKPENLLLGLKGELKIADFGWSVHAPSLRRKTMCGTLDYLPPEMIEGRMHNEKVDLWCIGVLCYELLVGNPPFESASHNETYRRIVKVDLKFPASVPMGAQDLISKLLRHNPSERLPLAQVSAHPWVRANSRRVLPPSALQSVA
Sequence of Serine/threonine-protein kinase Nek1 (Q96PY6 whole entry): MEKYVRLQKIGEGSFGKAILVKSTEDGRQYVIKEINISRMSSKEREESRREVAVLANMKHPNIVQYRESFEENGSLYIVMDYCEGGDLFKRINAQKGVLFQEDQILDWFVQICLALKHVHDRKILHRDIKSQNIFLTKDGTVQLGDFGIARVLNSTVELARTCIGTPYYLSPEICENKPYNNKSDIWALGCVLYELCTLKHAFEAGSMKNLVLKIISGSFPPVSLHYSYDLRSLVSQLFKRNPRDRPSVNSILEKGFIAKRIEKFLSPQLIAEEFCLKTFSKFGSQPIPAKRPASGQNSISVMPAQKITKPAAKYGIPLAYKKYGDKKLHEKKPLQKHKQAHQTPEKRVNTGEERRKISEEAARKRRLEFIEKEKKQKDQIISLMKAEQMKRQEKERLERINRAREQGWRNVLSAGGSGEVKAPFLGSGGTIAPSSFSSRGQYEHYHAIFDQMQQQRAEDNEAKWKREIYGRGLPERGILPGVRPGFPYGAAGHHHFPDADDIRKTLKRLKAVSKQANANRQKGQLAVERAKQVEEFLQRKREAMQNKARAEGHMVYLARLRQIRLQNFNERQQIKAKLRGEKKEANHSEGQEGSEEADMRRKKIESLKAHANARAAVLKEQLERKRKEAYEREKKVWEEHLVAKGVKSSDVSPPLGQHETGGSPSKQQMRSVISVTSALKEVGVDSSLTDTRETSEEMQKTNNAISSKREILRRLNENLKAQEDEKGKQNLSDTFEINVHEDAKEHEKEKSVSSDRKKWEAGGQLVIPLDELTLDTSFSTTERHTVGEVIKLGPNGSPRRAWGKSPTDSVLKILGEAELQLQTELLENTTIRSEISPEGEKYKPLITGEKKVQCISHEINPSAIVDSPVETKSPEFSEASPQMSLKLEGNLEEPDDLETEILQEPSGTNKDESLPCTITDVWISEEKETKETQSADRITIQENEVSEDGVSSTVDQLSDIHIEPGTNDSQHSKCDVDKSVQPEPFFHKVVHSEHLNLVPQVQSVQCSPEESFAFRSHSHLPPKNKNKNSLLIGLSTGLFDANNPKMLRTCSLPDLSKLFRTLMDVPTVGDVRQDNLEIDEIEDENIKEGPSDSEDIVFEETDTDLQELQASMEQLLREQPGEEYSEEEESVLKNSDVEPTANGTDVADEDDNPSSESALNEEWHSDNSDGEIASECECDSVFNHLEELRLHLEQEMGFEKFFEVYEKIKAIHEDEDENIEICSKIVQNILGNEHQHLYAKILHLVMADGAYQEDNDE
Sequence of LIM domain kinase 1 (P53667 whole entry, the tested form may be a part): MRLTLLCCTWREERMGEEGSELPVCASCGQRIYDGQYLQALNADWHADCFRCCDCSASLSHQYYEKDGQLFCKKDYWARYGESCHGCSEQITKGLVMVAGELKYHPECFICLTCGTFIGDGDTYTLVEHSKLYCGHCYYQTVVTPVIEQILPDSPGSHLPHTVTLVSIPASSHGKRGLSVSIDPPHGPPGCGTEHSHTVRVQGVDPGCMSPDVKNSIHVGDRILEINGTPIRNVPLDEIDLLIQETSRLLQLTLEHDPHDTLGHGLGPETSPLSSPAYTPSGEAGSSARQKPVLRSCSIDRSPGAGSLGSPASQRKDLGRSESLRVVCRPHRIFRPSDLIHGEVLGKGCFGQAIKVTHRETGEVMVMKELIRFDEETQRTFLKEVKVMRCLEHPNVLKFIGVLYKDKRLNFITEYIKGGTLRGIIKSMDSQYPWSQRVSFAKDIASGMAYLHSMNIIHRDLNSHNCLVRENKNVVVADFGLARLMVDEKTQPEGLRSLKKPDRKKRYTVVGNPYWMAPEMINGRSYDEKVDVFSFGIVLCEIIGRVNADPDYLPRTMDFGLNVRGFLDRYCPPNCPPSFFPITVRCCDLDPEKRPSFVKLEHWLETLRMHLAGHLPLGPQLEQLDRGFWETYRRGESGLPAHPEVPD
Sequence of Serine/threonine-protein kinase pim-2 (Q9P1W9 whole entry): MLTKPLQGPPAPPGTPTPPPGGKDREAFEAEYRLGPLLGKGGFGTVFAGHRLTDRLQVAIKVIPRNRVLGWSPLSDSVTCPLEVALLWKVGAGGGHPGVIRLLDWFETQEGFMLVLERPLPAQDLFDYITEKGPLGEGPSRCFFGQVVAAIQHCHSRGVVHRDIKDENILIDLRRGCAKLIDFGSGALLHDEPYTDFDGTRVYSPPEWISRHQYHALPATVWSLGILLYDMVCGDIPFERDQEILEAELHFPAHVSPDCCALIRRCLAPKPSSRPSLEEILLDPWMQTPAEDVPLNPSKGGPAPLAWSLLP

## CNC(=O)c1cc(Oc2ccc(NC(=O)Nc3cc(C(C)(C)C)nn3-c3ccc4ncccc4c3)c(F)c2)ccn1 [REBASTINIB]
LIM domain kinase 1
  IC50: 61 nM
[1]
  IC50: 70 nM
[2]
  IC50: 160 nM
[3]
  IC50: 250 nM
[4]
  IC50: 400 nM
[5]
  IC50: 670 nM
[6]
  IC50: 290 nM
Aurora kinase B
  IC50: > 1000 nM
[7]
  IC50: > 1000 nM
[8]
  IC50: > 1000 nM
[9]
  IC50: > 1000 nM
[10]
  IC50: > 1000 nM
[11]
  IC50: > 1000 nM
[12]
  IC50: > 1000 nM
[13]
  IC50: > 1000 nM
[14]
  IC50: > 1000 nM
[15]
  IC50: > 1000 nM
[16]
  IC50: > 1000 nM
[17]
  IC50: > 1000 nM
[18]
  IC50: > 1000 nM
[19]
  IC50: > 1000 nM
[20]
  IC50: > 1000 nM
[21]
  IC50: > 1000 nM
[22]
  IC50: > 1000 nM
BaF3
  Activity: Active
[23]
  inhibition: Active
[24]
  Kdiss: 3.33e-05 s⁻¹
[25]
  T1/2: 6.7 h
